Results taken from ChEMBL document CHEMBL4819044, “Discovery of a Hydroxypyridinone APJ Receptor Agonist as a Clinical Candidate” (J Med Chem, 2021).
Values after ≈ are worked out from the molar mass of the structure shown.

What was measured:
[1] = target: T1, Apelin receptor (Rattus norvegicus, UniProt Q9JHG3); test: Agonist activity at rat APJ receptor expressed in human HEK293 cells assessed as inhibition of forskolin-induced cAMP accumulation incubated for 1 hr by TR-FRET assay; format: functional, cell-based
T1 sequence (Q9JHG3 whole entry): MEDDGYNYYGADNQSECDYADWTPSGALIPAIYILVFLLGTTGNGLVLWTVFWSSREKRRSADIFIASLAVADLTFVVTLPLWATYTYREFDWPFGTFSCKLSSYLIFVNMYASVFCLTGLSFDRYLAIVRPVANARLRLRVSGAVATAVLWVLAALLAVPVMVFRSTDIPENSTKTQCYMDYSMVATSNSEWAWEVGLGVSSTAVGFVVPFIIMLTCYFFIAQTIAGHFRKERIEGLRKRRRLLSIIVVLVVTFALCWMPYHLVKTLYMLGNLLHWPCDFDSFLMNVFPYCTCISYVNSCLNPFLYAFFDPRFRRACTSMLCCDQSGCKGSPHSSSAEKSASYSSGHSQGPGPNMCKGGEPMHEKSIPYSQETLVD

[2] = Metabolic stability in human liver microsomes assessed as parent compound remaining incubated for 10 mins in presence of NADPH by triple quadrupole mass spectrometry; format: ADME, Microsome; conditions: read-out: Stabilty
[3] = Metabolic stability in rat liver microsomes assessed as parent compound remaining incubated for 10 mins in presence of NADPH by triple quadrupole mass spectrometry; format: ADME, Microsome; conditions: read-out: Stabilty
[4] = Solubility of compound in phosphate buffer pH 7.4 using excess solid incubated for 24 hrs under agitation condition by reverse phase LC analysis; format: physicochemical
[5] = target: T2, Apelin receptor (Homo sapiens, UniProt P35414); test: Agonist activity at human APJ receptor expressed in human HEK293 cells assessed as inhibition of forskolin-induced cAMP accumulation incubated for 1 hr by TR-FRET assay; format: functional, cell-based
T2 sequence (P35414 whole entry): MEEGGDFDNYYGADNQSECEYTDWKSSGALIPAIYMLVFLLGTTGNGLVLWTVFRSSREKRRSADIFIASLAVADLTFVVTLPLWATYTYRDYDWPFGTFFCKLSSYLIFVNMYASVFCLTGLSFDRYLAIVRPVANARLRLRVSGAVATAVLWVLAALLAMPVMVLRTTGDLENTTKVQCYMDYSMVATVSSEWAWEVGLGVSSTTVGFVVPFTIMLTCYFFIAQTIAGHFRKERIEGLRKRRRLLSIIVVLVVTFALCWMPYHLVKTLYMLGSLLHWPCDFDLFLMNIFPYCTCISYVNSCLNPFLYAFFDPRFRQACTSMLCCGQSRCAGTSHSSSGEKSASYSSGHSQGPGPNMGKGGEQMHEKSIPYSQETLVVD

[6] = in vivo; conditions: cynomolgus monkey, po, 3 mg/kg
Description: AUC (0 to infinity) in cynomolgus monkey at 3 mg/kg, po measured measured up to 72 hrs by LC/MS/MS analysis

[7] = cells; conditions: Canis lupus familiaris, HEK293, 1 h
[8] = system: Rattus norvegicus; test: Hemodynamic activity in Sprague-Dawley rat model of acute pressure-volume loop assessed as peripheral vasodilation by measuring free plasma drug concentration at 10 ug/kg/min administered as iv infusion measured at 5 mins; format: functional; conditions: dose 10 µg/kg/min
[9] = Half life in cynomolgus monkey at 3 mg/kg, po measured measured up to 72 hrs by LC/MS/MS analysis; conditions: in vivo
[10] = in vivo; conditions: cynomolgus monkey, po, 3 mg/kg; remark: listed apart in the source
Description: Cmax in cynomolgus monkey at 3 mg/kg, po measured measured up to 48 hrs by LC/MS/MS analysis

[11] = cells; conditions: Macaca mulatta, HEK293, 1 h
[12] = Oral bioavailability in cynomolgus monkey at 3 mg/kg measured measured up to 72 hrs by LC/MS/MS analysis; format: ADME, organism-based, Macaca fascicularis; conditions: in vivo
[13] = Stability in rat liver microsomes assessed as parent compound remaining at 30 uM incubated for 45 mins; format: ADME, Microsome; conditions: read-out: Stabilty
[14] = in vivo; conditions: Sprague-Dawley, rat, po, 3 mg/kg
Description: Cmax in Sprague-Dawley rat at 3 mg/kg, po measured up to 48 hrs by LC/MS/MS analysis

[15] = Renal clearance in Sprague-Dawley rat at 3 mg/kg, po measured up to 48 hrs by LC/MS/MS analysis; format: ADME, organism-based; conditions: in vivo
[16] = Glutathione reactivity of the compound assessed as GSH-adduct formation; format: physicochemical
[17] = Oral bioavailability in Sprague-Dawley rat at 3 mg/kg measured measured up to 48 hrs by LC/MS/MS analysis; format: ADME, organism-based; conditions: in vivo
[18] = system: Rattus norvegicus; test: Hemodynamic activity in Sprague-Dawley rat model of acute pressure-volume loop assessed as increase in cardiac output at 10 ug/kg/min administered as iv infusion measured at 5 mins relative to control; format: functional; conditions: dose 10 µg/kg/min
[19] = Stability in monkey liver microsomes assessed as parent compound remaining at 30 uM incubated for 45 mins; format: ADME, Macaca mulatta, Microsome; conditions: rhesus monkey, read-out: Stabilty
[20] = Stability in human liver microsomes assessed as parent compound remaining at 30 uM incubated for 45 mins; format: ADME, Microsome; conditions: read-out: Stabilty
[21] = target: T2, Apelin receptor; test: Displacement of [3H]Apelin-13 from human APJ receptor stably expressed in human HEK293 cell membrane incubated for 120 mins by TopCount scintillation plate reader analysis; format: cell membranes
[22] = Half life in Sprague-Dawley rat at 3 mg/kg, po measured up to 48 hrs by LC/MS/MS analysis; conditions: in vivo
[23] = in vivo; conditions: Sprague-Dawley, rat, po, 3 mg/kg; remark: listed apart in the source
Description: AUC (0 to infinity) in Sprague-Dawley rat at 3 mg/kg, po measured up to 48 hrs by LC/MS/MS analysis

[24] = Urinary excretion in cynomolgus monkey at 3 mg/kg, po measured measured up to 72 hrs by LC/MS/MS analysis; conditions: in vivo

Structure (SMILES)	EC50 [1] [nM]	remaining at 10 min [2] [%]	remaining at 10 min [3] [%]	solubility thermodynamic at 24 h [4] [µg/mL]	EC50 [5] [nM]	also measured
CCCCc1[nH]c(=O)c(-c2nnc(-c3ccc(Cl)cc3)o2)c(O)c1-c1c(OC)cccc1OC	450	99	36			
CCCCc1[nH]c(=O)c(-c2nc(Cc3ccccc3)no2)c(O)c1-c1c(OC)cccc1OC	120	69	54			
CCCCc1nc(O)c(-c2nnc(Cc3ccc(Cl)cc3)o2)c(O)c1-c1c(OC)cccc1OC	1.2	66	22	< 1	0.4	
CCCCc1nc(O)c(-c2nnc(Cc3cccc(Cl)c3)o2)c(O)c1-c1c(OC)cccc1OC	7.3	88	38		2.6	
CCCCc1[nH]c(=O)c(C(=O)OCC)c(O)c1-c1c(OC)cccc1OC	980	89	24			
COCCc1[nH]c(=O)c(-c2nnc(Cc3ccc(Cl)cc3)o2)c(O)c1-c1c(OC)cccc1OC	1.4	86	73	73 (≈ 147 µM)		
CCCCc1[nH]c(=O)c(-c2nnc(Cc3ccccc3)o2)c(O)c1-c1c(OC)cccc1OC	31	87	53			
CCCCc1nc(O)c(-c2nnc(Cc3ccccc3Cl)o2)c(O)c1-c1c(OC)cccc1OC	18	82	24		8.6	
CCCCc1[nH]c(=O)c(-c2n[nH]c(Cc3ccccc3)n2)c(O)c1-c1c(OC)cccc1OC	430	36	15			
COc1cccc(OC)c1-c1c(C2CC2)[nH]c(=O)c(-c2nnc(Cc3ccc(Cl)cc3)o2)c1O	15	88	51	12 (≈ 25 µM)	11	

Now those with a lower EC50 [1], led by results:

EC50 [1] [nM]	remaining at 10 min [2] [%]	remaining at 10 min [3] [%]	solubility thermodynamic at 24 h [4] [µg/mL]	EC50 [5] [nM]	Structure (SMILES)	also measured
0.51	80	66	4 (≈ 7.87 µM)	0.24	COc1cccc(OC)c1-c1c(C2CCCC2)[nH]c(=O)c(-c2nnc(Cc3ccc(Cl)cc3)o2)c1O	
0.024	91	92	220 (≈ 441 µM)	0.023	CCOCc1nc(O)c(-c2nnc(Cc3ccc(Cl)cn3)o2)c(O)c1-c1c(OC)cccc1OC [BMS-986224]	AUC(0-inf) at 72 h [6]: 15.3 µM·h; EC50 [7]: 0.03 nM; Cp(f) [8]: 18 nM; half-life at 72 h [9]: 3.6 h; Cmax at 48 h [10]: 1.5 µM; EC50 [11]: 0.08 nM; bioavailability [12]: 56%; remaining at 0.75 h, 30 µM [13]: > 95%; Cmax at 48 h [14]: 5.6 µM; dose excreted at 48 h [15]: 4%; Drug metabolism [16]: Not Active; bioavailability [17]: 77%; Activity [18]: 12%; remaining at 0.75 h, 30 µM [19]: > 95%; remaining at 0.75 h, 30 µM [20]: > 95%; Ki [21]: 0.074 nM; half-life at 48 h [22]: 2.5 h; AUC(0-inf) at 48 h [23]: 34 µM·h; dose excreted in urine [24]: 12%
0.58	96	76	110 (≈ 220 µM)	0.17	CCOCc1[nH]c(=O)c(-c2nnc(Cc3ccc(Cl)nc3)o2)c(O)c1-c1c(OC)cccc1OC	
0.23	94	74	26 (≈ 52.2 µM)	0.12	CCOCc1nc(O)c(-c2nnc(Cc3ccc(Cl)cc3)o2)c(O)c1-c1c(OC)cccc1OC	
